Results on six compounds are retold here after patent US20220177484A1, “MACROCYCLES WITH ANTIOXIDANT AND NEUROPROTECTIVE ACTIVITIES” (INSTITUTO BIOMAR, S.A, priority 2019, published 2022).

The structures appear in SMILES notation.

Holding throughout (assay type): cell-based
For assay [1], the system named is cortical primary neurons (from C57BL6/J mice). As to the kind of experiment: H2O2 production in neurons after excitotoxic NMDA stimulus (Amplex Red). The conditions noted are these: 100 μM NMDA 10 min, then compound 0.1, 1, 5 μM (FIG. 5). The protocol: For NMDA receptors activation, neurons at 8 days in vitro were incubated with 100 μM NMDA for 10 minutes. Neurons were then washed and further incubated for 4 hours in culture medium with DMSO only (DMSO empty bar), DMSO and NMDA (DMSO filled bar) and with increasing quantities of GKK1032C, GKK1032, Pyrrocidine A, Pyrrocidine B, CL0661, CL0667 and CL0670. Concentrations of 0.1 μM, 1 μM, 5 μM. *: p-value <0.05 vs. DMSO+NMDA (student's test).
(§1) Experiments were performed in […] cortical primary neurons, obtained as was previously described (Herrero-Mendez A. et al., Nat. Cell. Biol. 11:747-752, 2009). After 7 or 8 days in B27-MAO culture, neurons (from C57BL6/J mice) were incubated in the presence of N-methyl-D-aspartate (NMDA, a H2O2 production promoter; 100 μM) for 10 minutes, followed by a PBS washing step and submitted to a 24-hour B27 incubation step in the absence (DMSO) or presence of increasing amounts of GKK1032C, GKK1032, Pyrrocidine B, Pyrrocidine A, CL0661, CL0665, CL0667 and CL0670 (0.1 μM, 1 μM and 5 μM). B27-MAO stands for Neurobasal medium, supplemented with B27 supplement in the absence of antioxidants (minus antioxidants, MAO).
The release of H2O2 was measured using the fluorescent method Amplex© Red hydrogen peroxide/peroxidase assay kit (Invitrogen, catalog number A22188) using a multiwell fluorescence reader (Varioskan, Thermo Scientific).
(§2) The data are presented as the mean values±standard deviation of the mean from n=3.

Assay [2] shares this test system. The experiment in a line: Caspase-3 activity (neuronal apoptosis) after excitotoxic NMDA stimulus. The conditions noted are these: 100 μM NMDA 10 min, then 24 h with compound 0.1, 1, 5 μM (FIG. 6). On the procedure: For NMDA receptors activation, neurons at 8 days in vitro were incubated with 100 μM NMDA for 10 minutes. Neurons were then washed and further incubated for 24 hours in culture medium with DMSO only (DMSO empty bar), DMSO and NMDA (DMSO filled bar) and with increasing quantities of GKK1032C, GKK1032, Pyrrocidine B, CL0661, CL0665, CL0667 and CL0670. Concentrations of 0.1 μM, 1 μM, 5 μM. *: pvalue <0.05 vs. DMSO+NMDA (student's test).
as §1
Neuronal apoptosis was determined by measuring caspase-3 activity (Veas-Perez de Tudela et al. Sci Rep 5:18180; doi:10.1038/srep18180 (2015).
as §2

Assay [3] has as its system rat cortical primary neurons. The experiment in a line: H2O2 formation in cortical primary neurons treated with L-BSO and rotenone (Amplex Red). To be noted: compound 1 μg/ml together with L-BSO and rotenone for 6 h, washed, recorded 2 h (FIG. 2). The protocol:
The data are presented as the mean values±[…] of the mean (SEM) from n=6 (i.e., 6 independent wells measured independently).
After this period, cells were again washed and determined the rate of H2O2 production during the next 2 h.

As to `C=CC1(C)C=C(C)C2C3C(Oc4ccc(cc4)CC4C(=O)N(CC#N)C(=O)C4C(=O)C31)C1C(C)CC(C)CC21C` (stereo not drawn) [CL0667], the “H2O2 production in neuron cells after NMDA” value (“H2O2 production” below) in assay [1] is reported as “successful in preventing H2O2 from being produced”. Also, in assay [2], the “neuronal apoptosis (caspase-3 activity) after NMDA” value (“neuronal apoptosis” for short) is listed as “effective in protecting neuron cells against apoptosis”.
Take `C=CC1(C)C=C(C)C2C3C(Oc4ccc(cc4)CC45OC4(C(=O)NC5=O)C(=O)C31)C1C(C)CC(C)CC21C` (stereo not drawn) [CL0661]: in assay [1], the “H2O2 production” value is given as “successful in preventing H2O2 from being produced”. The “neuronal apoptosis” value in assay [2] is “effective in protecting neuron cells against apoptosis”.
Regarding `C=C[C@@H]1C=C(C)[C@H]2[C@@H]3[C@H](Oc4ccc(cc4)C[C@@]4(O)C=C(C(=O)N4)C(=O)[C@@H]13)[C@@H]1[C@@H](C)C[C@@H](C)C[C@]12C` [Pyrrocidine A, reference compound], in assay [3], the “rate of H2O2 formation” value was “significantly impaired”. Further, the “H2O2 production” value in assay [1] was “successful in preventing H2O2 from being produced”.
Take `CC1=CC2(C)C(C)O/C3=C4\C(=O)NC(=O)C4Cc4ccc(cc4)OC4C(C32)C1C1(C)CC(C)CC(C)C41` (stereo not drawn) [CL0665]: the “neuronal apoptosis” value in assay [2] is given as “effective in protecting neuron cells against apoptosis”.
In the case of `C=C[C@@H]1C=C(C)[C@H]2[C@@H]3[C@H](Oc4ccc(cc4)C[C@@]4(O)C[C@H](C(=O)N4)C(=O)[C@@H]13)[C@@H]1[C@@H](C)C[C@@H](C)C[C@]12C` [Pyrrocidine B, reference compound], in assay [1], the “H2O2 production” value is “successful in preventing H2O2 from being produced”. Also, the “neuronal apoptosis” value in assay [2] is “effective in protecting neuron cells against apoptosis”.
As to `C=C[C@@]1(C)C=C(C)C2C3[C@H](Oc4ccc(cc4)CC4C(=O)NC(=O)[C@H]4C(=O)[C@H]31)C1[C@@H](C)C[C@@H](C)C[C@@]21C` (stereo partly drawn) [GKK1032, reference compound], the “rate of H2O2 formation” value in assay [3] is given as “significantly impaired”. In assay [1], the “H2O2 production” value is “successful in preventing H2O2 from being produced”. Besides, the “neuronal apoptosis” value in assay [2] is on record as “effective in protecting neuron cells against apoptosis”.
